US5574015A, “Isosteric antiherpes peptide derivatives” (priority 1994, dated 1996)

System: HSV-2
Assay: Inhibition of Herpes Simplex Virus (HSV-2) replication in cell culture
Format: cell-based, HSV-2 strain HG-52
Protocol: Inhibition of Herpes Simplex Virus (HSV-2). Replication in Cell Culture
BHK-21/C13 cells (ATCC CCL 10) are incubated for two days in 150 cm^2 T-flasks (1.5×10^6 cells/flask) with alpha-MEM medium (Gibco Canada Inc., Burlington, Ontario, Canada) supplemented with 8% (v/v) fetal bovine serum (FBS, Gibco Canada Inc.). The cells are trypsinized and then transferred to fresh media in a 24 well plate to give 2.5×10^5 cells in 750 μL of media per well. The cells are incubated at 37° for a period of 6 h to allow them to adhere to the plate. Thereafter, the cells are washed once with 500 μL of alpha-MEM supplemented with 0.5% (v/v) FBS and then incubated with 750 μL of the see media (low serum) for 3 days. After this period of serum starvation, the low serum medium is removed and the cells are incubated in 500 μL of BBMT for 2 to 3 hours. {BBMT medium is described by P. Brazeau et al., Proc. Natl. Acad. Sci. USA, 79, 7909 (1982).} Thereafter, the cells are infected with HSV-2 (multiplicity of infection=0.02 PFU/cell) in 100 μL of BBMT medium. (Note: The HSV-2 used was strain HG-52, see Y. Langelier and G. Buttin, J. Gen. Virol., 57, 21 (1981); the virus was stored at -80°) Following 1 h of virus adsorption at 37°, the media is removed and the cells are washed with BBMT (3×250 μL). The cells in each well are incubated with or without (control) appropriate concentrations of the test agent dissolved in 200 μL of BBMT medium. After 29 h of incubation at 37°, the infected cells are harvested by first freezing the plate at -80°, followed by thawing. The cells in each well are scraped off the surface of the well with the help of the melting ice fragments. After complete thawing, the cell suspensions are collected and each well is rinsed with 150 μL of BBMT medium. The viral sample (suspension plus washing) is sonicated gently for 4 min at 4°. Cell debris are removed by centrifugation (1000 times gravity for 10 minutes at 4°). The supernatant is collected and stored at -80° until determination of viral titer.
Viral titration was performed by a modification of the colorimetric assay method of M. Langlois et al., Journal of Biological Standardization, 14, 201 (1986).
More specifically, in a similar manner as described above, BHK-21/C13 cells are trypsinized and transferred to fresh media in a 96 well microtiter plate to give 20,000 cells in 100 μL of media per well. The cells in the prepared plate are incubated at 37° for 2 h. During that time, the viral sample is thawed and sonicated gently for 15 seconds, and log dilutions of the sample are prepared (1/5 sequential: 50 μL of the sample plus 200 μL of BBMT medium, sequential dilutions being done with a multichannel pipette.
On completion of the above 2 hour incubation of the BHK-21/C13 cells, the media is replaced with alpha-MEM medium supplemented with 3% (v/v) FBS. The cells are now ready to be infected with the various sample dilutions of virus. Aliquots (50 μL) of the various dilutions are transferred into the appropriate wells of the plate. The resulting infected cells are incubated for 2 days at 37°. Then 50 μL of a 0.15% (v/v) solution of neutral red dye in Hank's Balanced Salt Solution (pH 7.3, Gibco Canada Inc.) is added to each well. The prepared plate is incubated for 45 min at 37°. Medium from each well is then aspirated and the cells are washed once with 200 μL of Hank's Balanced Salt Solution. […]

[1] = Table II, BHK-21/C13 cells, 29 h incubation, 50% inhibition of virus replication
[2] = Table V, cell culture assay of example 11

In the case of `Nc1nc2c(ncn2COCCO)c(=O)[nH]1` [acyclovir, reference compound], the EC50 (Human alphaherpesvirus 2, Table III, acyclovir + 2 μM of peptide (title peptide of example 6)) is reported as 1.4 µM, the EC50 (Human alphaherpesvirus 2, Table III, acyclovir + 4 μM of peptide (title peptide of example 6)) is reported as 0.9 µM and the EC50 (Human alphaherpesvirus 2, Table III, acyclovir + 6 μM of peptide (title peptide of example 6)) is reported as 0.9 µM. The EC50 (Human alphaherpesvirus 2, Table III, acyclovir + 8 μM of peptide (title peptide of example 6)) was 0.8 µM, the EC50 (Human alphaherpesvirus 2, Table III, acyclovir + 10 μM of peptide (title peptide of example 6)) was 0.42 µM and the “synergism by the isobole method” value (combination of acyclovir and title peptide of example 6, FIG. 1) was “positive result”. For the same compound, the “action of the combination of acyclovir and the peptide versus acyclovir alone” value (combinations with title peptide of example 6, EC50's significantly lower than acyclovir alone) was “synergistic action”.
For “Et2 CHNHC(O)--Tbg--CH2 --(R)-CH(CH2 C(O)--CMe3)C(O)--Asp(cyPn)--NHCH2 CMe3”, the EC50 [1] was 56 µM.
Work on “Et2 CHNHC(O)--Tbg--CH2 --(R)-CH{CH2 C(O)--(cyclopentyl)}C(O)--Asp(cyPn)--NHCH2 CMe3” yielded an EC50 [1] of 50 µM.
For “Et2 CHNHC(O)--Tbg--CH2 --(S)-CH{CH2 C(O)--(pyrrolidino)}C(O)--Asp(cyPn)--γMeLeucinol”, the EC50 [1] was 200 µM.
“Me(CH2 =CH--CH2)2 CNHC(O)-Tbg-CH2 --(R)--CH(CH2 C(O)CMe3)C(O)-Asp(cyPn)-NHCH2 CMe3 [Me(CH2 =CHCH2)2 --CNHC(O), NHCH2 CMe3]” gave an EC50 (Table IV, cell culture assay of example 11) of 30 µM.
Work on “PhCH2 CH2 C(O)--(N--Me)Val--Tbg--CH2 --(R)-CH(CH2 C(O)CMe3)C(O)--Asp(cyPn)--γMeLeu--NH2” yielded an EC50 [1] of 60 µM.
For “PhCH2 CH2 C(O)--(N--Me)Val--Tbg--CH2 --(R)-CH(CH2 C(O)CMe3)C(O)--Asp(cyPn)--γMeLeu--OH”, the EC50 [1] was 65 µM.
“PhCH2 CH2 C(O)--(N-Me)Val-Tbq-CH2 --(R)--CH(CH2 C(O)CMe3)C(O)-Asp(cyPn)-γMeLeucinol [Title Compound of Example 6]” was tested, and the EC50 [1] was 15 µM and the EC50 (Table III, agent alone, BHK-21/C13 cells) was 19 µM.
In the case of “Pr2 CHNHC(O)--NH--(S)-CH(CMe2 Et)--C(O)--CH2 --(R)-CH(CH2 C(O)CMe3)C(O)--Asp--(cyPn)--NH--(R)-CH(Me)CMe3”, the EC50 [2] is reported as 13 µM.
In the case of “Pr2 CHNHC(O)--Tbg--CH2 --(R)-CH(CH2 --C(O)CHMe2)C(O)--Asp(cyPn)--NHCH2 CMe3”, the EC50 [2] is reported as 39 µM.
“Pr2 CHNHC(O)--Tbg--CH2 --(R)-CH(CH2 --C(O)CMe2 Et)C(O)--Asb(cyPn)--NHCH2 --CMe3” was tested, and the EC50 [2] was 33 µM.
“Pr2 CHNHC(O)--Tbg--CH2 --(R)-CH(CH2 --C(O)CMe3)C(O)--Asp{(R)-Pr}--NHCH2 CMe3” was tested, and the EC50 [2] was 46 µM.
Work on “Pr2 CHNHC(O)--Tbg--CH2 --(R)-CH(CH2 --C(O)CMe3)C(O)--Asp{(R)-allyl}--NHCH2 CMe3” yielded an EC50 [2] of 62 µM.
“Pr2 CHNHC(O)--Tbg--CH2 --(R)-CH(CH2 C(O)--CMe3)C(O)--Asp(cyPn)--NHCH2 CMe3” showed an EC50 [1] of 24 µM.
“Pr2 CHNHC(O)--Tbg--CH2 --(R)-CH(CH2 C(O)--CMe3)C(O)--Asp(cyPn)--γMeLeucinol” showed an EC50 [1] of 30 µM.
For “Pr2 CHNHC(O)--Tbg--CH2 --(R)-CH--(CH2 C(O)CH2 CMe3)C(CF)--Asp(cyPn)--Leu--OH”, the EC50 [2] was 80 µM.
“Pr2 CHNHC(O)--Tbg--CH2 --(R)-CH{CH2 --C(O)--(1-methylcyclopentyl)}C(O)--Asp(cyPn)--NHCH2 CMe3” showed an EC50 [2] of 35 µM.
Work on “Pr2 CHNHC(O)--Tbg--CH2 --(R)-CH{CH2 --C(O)--(cyclobutyl)}C(O)--Asp(cyPn)--NHCH2 CMe3” yielded an EC50 [2] of 46 µM.
Work on “Pr2 CHNHC(O)--Tbg--CH2 --(R)-CH{CH2 --C(O)--(cyclohexyl)}C(O)--Asp(cyPn)--NHCH2 CMe3” yielded an EC50 [2] of 61 µM.
“Pr2 CHNHC(O)--Val--CH2 --(R)-CH(CH2 --C(O)CMe3)C(O)--Asp(cyPn)--NH--(R)-CH(Me)CMe3” was tested, and the EC50 [2] was 37 µM.
